From patent US10160755B2 (Plexxikon Inc., priority 2015, dated 2018) come the findings set out here.

Residue numbers refer to the chain shown, from its start.

In one test the target is T1, FLT3-D835Y (Homo sapiens, UniProt P36888, D835Y).
T1 construct: purchased Invitrogen PV3967
T1 sequence (P36888 27-993 D835Y): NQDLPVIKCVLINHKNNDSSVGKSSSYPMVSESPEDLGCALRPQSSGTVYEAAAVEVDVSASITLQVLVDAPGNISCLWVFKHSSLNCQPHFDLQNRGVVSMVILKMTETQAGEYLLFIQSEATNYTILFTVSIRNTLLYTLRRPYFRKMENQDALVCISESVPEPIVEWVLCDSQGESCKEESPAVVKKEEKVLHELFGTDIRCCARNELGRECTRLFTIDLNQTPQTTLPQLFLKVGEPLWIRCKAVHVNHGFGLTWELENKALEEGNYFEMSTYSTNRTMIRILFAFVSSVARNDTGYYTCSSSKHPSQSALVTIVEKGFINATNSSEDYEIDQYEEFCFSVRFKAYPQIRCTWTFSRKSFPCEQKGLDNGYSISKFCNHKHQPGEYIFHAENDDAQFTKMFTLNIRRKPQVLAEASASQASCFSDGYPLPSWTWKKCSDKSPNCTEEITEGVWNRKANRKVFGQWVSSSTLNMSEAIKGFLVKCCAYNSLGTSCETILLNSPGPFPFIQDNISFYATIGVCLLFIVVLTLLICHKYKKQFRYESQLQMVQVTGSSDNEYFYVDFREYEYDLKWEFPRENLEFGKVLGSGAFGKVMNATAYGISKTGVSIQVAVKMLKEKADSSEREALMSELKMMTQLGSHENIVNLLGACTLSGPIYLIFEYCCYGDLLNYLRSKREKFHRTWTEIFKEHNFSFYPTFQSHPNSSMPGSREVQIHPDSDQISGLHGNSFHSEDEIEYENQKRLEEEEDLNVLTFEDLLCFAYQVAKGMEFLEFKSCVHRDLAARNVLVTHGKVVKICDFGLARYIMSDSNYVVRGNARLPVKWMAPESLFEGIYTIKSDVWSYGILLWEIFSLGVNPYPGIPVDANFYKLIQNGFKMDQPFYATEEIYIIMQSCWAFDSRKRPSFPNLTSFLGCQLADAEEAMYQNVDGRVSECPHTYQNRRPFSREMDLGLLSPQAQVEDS
Description: FLT3-D835Y biochemical kinase assay (AlphaScreen). In outline: (§1)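 Recombinant enzyme phosphorylated biotin-poly(Glu4-Tyr) peptide (30 nM final); ATP final 10 μM for FLT3-D835Y, 100 μM for FLT3-ITD. AlphaScreen read-out: streptavidin donor and anti-phosphotyrosine (PY20) acceptor beads, 20 and 60 min at room temperature; inhibition seen as drop in 580 nm proximity signal; IC50 determined.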

Test [1] addresses T2, BA/F3-FLT3-ITD + F691L cells (Homo sapiens, UniProt P36888, F691L, cells depend on it, form not given).
T2 sequence (P36888 1-993 F691L): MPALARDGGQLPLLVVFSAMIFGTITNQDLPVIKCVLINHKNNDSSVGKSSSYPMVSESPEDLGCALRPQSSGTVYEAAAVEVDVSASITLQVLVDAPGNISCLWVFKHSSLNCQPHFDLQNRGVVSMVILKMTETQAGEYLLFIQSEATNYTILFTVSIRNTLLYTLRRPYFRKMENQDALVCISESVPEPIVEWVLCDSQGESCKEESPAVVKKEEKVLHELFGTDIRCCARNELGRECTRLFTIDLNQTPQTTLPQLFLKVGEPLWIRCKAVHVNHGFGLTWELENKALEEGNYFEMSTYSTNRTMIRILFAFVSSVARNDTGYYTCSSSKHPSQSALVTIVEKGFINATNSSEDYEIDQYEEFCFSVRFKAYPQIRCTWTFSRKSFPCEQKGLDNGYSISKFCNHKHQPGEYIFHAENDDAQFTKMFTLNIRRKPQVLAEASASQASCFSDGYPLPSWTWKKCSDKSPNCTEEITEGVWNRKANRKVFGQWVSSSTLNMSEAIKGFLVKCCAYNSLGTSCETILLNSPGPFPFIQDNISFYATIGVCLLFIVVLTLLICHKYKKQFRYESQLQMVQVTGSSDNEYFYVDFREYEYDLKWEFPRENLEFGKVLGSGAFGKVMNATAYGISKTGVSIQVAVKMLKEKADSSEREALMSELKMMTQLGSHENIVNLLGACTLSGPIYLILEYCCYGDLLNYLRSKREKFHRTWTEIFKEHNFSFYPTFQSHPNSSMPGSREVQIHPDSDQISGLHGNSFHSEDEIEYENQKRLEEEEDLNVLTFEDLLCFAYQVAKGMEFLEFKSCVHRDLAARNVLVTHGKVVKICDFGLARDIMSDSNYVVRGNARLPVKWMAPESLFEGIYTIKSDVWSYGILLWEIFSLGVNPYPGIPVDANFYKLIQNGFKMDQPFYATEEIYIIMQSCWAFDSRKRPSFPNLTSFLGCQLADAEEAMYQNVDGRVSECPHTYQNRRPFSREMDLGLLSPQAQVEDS
As to the kind of experiment: BA/F3-FLT3-ITD + F691L cell proliferation assay (CellTiter-Glo). The format is cell-based, murine. The note with it: BaF3 FLT3 ITD/F691L cells; read-out: Cell Activity (IC50 μM) BaF3_FLT3_ITD/F691L. The source says:
The FLT3 inhibitors may also be assessed using leukemia cell lines that express endogenous FLT3-ITD or cells that are engineered to express wild-type or mutant FLT3. The cells expressing endogenous FLT3 are dependent upon FLT3 catalytic activity for growth. For the engineered cells, murine BA/F3 cells were transfected with full-length FLT3 (either wild-type, or containing the ITD, D835Y, or F691L mutations, as noted). The parental BA/F3 cells are dependent upon Interleukin-3 (IL-3) for survival, and introduction of the FLT3 constructs renders these cells dependent upon FLT3 kinase activity when cultured in the absence of IL-3. Engineered BA/F3 cell growth assays can be performed in either the absence or presence of IL-3, to assess the compound inhibition of FLT3 or to detect the presence of off-target activity, respectively. Inhibitors of FLT3 kinase activity reduce or eliminate the FLT3 oncogenic signaling, resulting in reduced cell proliferation. This inhibition is measured as a function of compound concentration to assess IC50 values.
Cells were seeded at 1×10^4 cells per well of a 96 well cell culture plate in 50 μl of cell culture medium. Compounds were dissolved in DMSO, typically at a concentration of 5 mM and were serially diluted 1:3 for a total of eight points and added to the cells to final concentrations of 10, 3.3, 1.1, 0.37, 0.12, 0.041, 0.014 and 0.0046 μM in 100 μl cell culture medium (final concentration 0.2% DMSO). […] The cells were incubated at 37° C., 5% CO2 for three days. CellTiter-Glo Buffer (Promega Cell Viability Assay catalog #G7573) and substrate were equilibrated to room temperature, and enzyme/substrate Recombinant Firefly Luciferase/Beetle Luciferin was reconstituted. The cell plates were equilibrated to room temperature for 30 minutes, then lysed by addition of an equivalent volume of the Celltiter-Glo Reagent. The plate was mixed for 10 minutes on a plate shaker to lyse the cells. The plates were read on a Tecan M1000 using Luminescence protocol modified to read 0.1 s per well. The luminescence reading assesses the ATP content, which correlates directly with cell number such that the reading as a function of compound concentration was used to determine the IC50 value.
In general terms: ATP-based viability assays read luminescence as a measure of living cells.

The target of the next test is T3, FLT3-ITD (Homo sapiens, UniProt P36888).
T3 construct: FLT3-ITD; Invitrogen #PV6190
T3 sequence (P36888 1-993): T2 sequence (P36888 1-993 F691L) with L691F
Description: FLT3-ITD biochemical kinase assay (AlphaScreen). The essentials:
as §1
(Bead proximity is the source of the signal in Alpha formats.)

As a reminder, the IC50 is the concentration that gives 50% inhibition. A lower IC50 goes with inhibition by little substance. `Cn1cnc2ccc(-c3c[nH]c4ncc(C(=O)Nc5cccc(F)c5)cc34)cc21` [P-177, N-(3-fluorophenyl)-3-(3-methylbenzimidazol-5-yl)-1H-pyrrolo[2,3-b]pyridine-5-carboxamide]: at FLT3-D835Y, the 50% inhibitory concentration (IC50) is 0.0001 to 1 µM. In addition, in test [1], the GI50 lay within 0.0001 to 1 µM.

As to `COc1cnc2[nH]cc(-c3ccc4ncn(-c5ccc(F)c(Cl)c5)c4c3)c2c1` [P-109, 1-(3-chloro-4-fluoro-phenyl)-6-(5-methoxy-1H-pyrrolo[2,3-b]pyridin-3-yl)benzimidazole], at FLT3-D835Y, the IC50 lay within 0.0001 to 1 µM. In addition, in test [1], the GI50 was in the range of 0.0001 to 1 µM.

Regarding `N#Cc1cc(-c2cnc3[nH]cc(-c4ccc5ncn(C6CCCNC6)c5c4)c3n2)ccn1` (stereo not shown) [P-304, 4-[7-[3-(3-piperidyl)benzimidazol-5-yl]-5H-pyrrolo[2,3-b]pyrazin-2-yl]pyridine-2-carbonitrile], on FLT3-D835Y, the concentration for half-maximal inhibition (IC50) lay in the range of 0.0001 to 1 µM. In test [1], the GI50 was 0.0001 to 1 µM.

In the case of `CC(C)(C)n1cnc2ccc(-c3c[nH]c4ncc(-c5cccc(N6CCNCC6)c5)nc34)cc21` [P-302, 7-(3-tert-butylbenzimidazol-5-yl)-2-(3-piperazin-1-ylphenyl)-5H-pyrrolo[2,3-b]pyrazine], the IC50 at FLT3-D835Y is 0.0001 to 1 µM. For the same compound, in test [1], the GI50 lay in the range of 0.0001 to 1 µM.

For `CN1CCN(c2ccc(-c3cnc4[nH]cc(-c5ccc6ncn(C7CCCNC7)c6c5)c4n3)cn2)CC1` (stereo not shown) [P-334, 2-[6-(4-methylpiperazin-1-yl)-3-pyridyl]-7-[3-(3-piperidyl)benzimidazol-5-yl]-5H-pyrrolo[2,3-b]pyrazine], the 50% inhibitory concentration (IC50) against FLT3-ITD was in the range of 0.0001 to 1 µM. Moreover, the GI50 in test [1] was 0.0001 to 1 µM.

On FLT3-D835Y, `c1cc(-c2cnc3[nH]cc(-c4ccc5ncn(C6CCCNC6)c5c4)c3n2)cc(N2CCNCC2)n1` (stereo not shown) [P-308, 2-(2-piperazin-1-yl-4-pyridyl)-7-[3-(3-piperidyl)benzimidazol-5-yl]-5H-pyrrolo[2,3-b]pyrazine] had a concentration for half-maximal inhibition (IC50) of 0.0001 to 1 µM. The GI50 in test [1] lay in the range of 0.0001 to 1 µM.

`CC(C)(C)n1cnc2ccc(-c3c[nH]c4ncc(-c5ccc(N6CCOCC6)cc5)cc34)cc21` [P-299, 4-[4-[3-(3-tert-butylbenzimidazol-5-yl)-1H-pyrrolo[2,3-b]pyridin-5-yl]phenyl]morpholine] had a 50% inhibitory concentration (IC50) against FLT3-D835Y of 0.0001 to 1 µM. In test [1], the GI50 lay in the range of 0.0001 to 1 µM.

In the case of `c1cc(-c2cnc3[nH]cc(-c4ccc5ncn(C6CCCNC6)c5c4)c3n2)cc(N2CCOCC2)c1` (stereo not shown) [P-303, 4-[3-[7-[3-(3-piperidyl)benzimidazol-5-yl]-5H-pyrrolo[2,3-b]pyrazin-2-yl]phenyl]morpholine], at FLT3-D835Y, the IC50 lay in the range of 0.0001 to 1 µM. Further, the GI50 in test [1] fell in the range of 0.0001 to 1 µM.

Consider `c1cc(N2CCOCC2)ccc1-c1cnc2[nH]cc(-c3ccc4ncn(C5CCCNC5)c4c3)c2c1` (stereo not shown) [P-300, 4-[4-[3-[3-(3-piperidyl)benzimidazol-5-yl]-1H-pyrrolo[2,3-b]pyridin-5-yl]phenyl]morpholine], for which the IC50 at FLT3-D835Y lay within 0.0001 to 1 µM. The GI50 in test [1] fell in the range of 0.0001 to 1 µM.

Consider `CC(C)(C)n1cnc2ccc(-c3c[nH]c4ncc(-c5ccnc(N6CCNCC6)c5)nc34)cc21` [P-307, 7-(3-tert-butylbenzimidazol-5-yl)-2-(2-piperazin-1-yl-4-pyridyl)-5H-pyrrolo[2,3-b]pyrazine], for which, on FLT3-D835Y, the IC50 lay within 0.0001 to 1 µM. Also, the GI50 in test [1] lay in the range of 0.0001 to 1 µM.

As for `CN1CCN(c2ccc(-c3cnc4[nH]cc(-c5ccc6ncn(C(C)(C)C)c6c5)c4n3)cn2)CC1` [P-333, 7-(3-tert-butylbenzimidazol-5-yl)-2-[6-(4-methylpiperazin-1-yl)-3-pyridyl]-5H-pyrrolo[2,3-b]pyrazine], the IC50 against FLT3-ITD was in the range of 0.0001 to 1 µM. In test [1], the GI50 is 0.0001 to 1 µM.
